Reference: patent publication US20250073014A1, “METHODS, DEVICES AND SYSTEMS FOR TREATING NEOINTIMAL GROWTH” (priority 2022, published 2025)
Read-outs that look alike come from different tables or passages of the source.

Tests used:
[1] = tested on: cholesterol-induced atherosclerosis; conditions: cited from earlier work
[2] = set-up: species or system Yorkshire swine; conditions: female, Yorkshire, pig, in vivo
Procedure: Formulations: Two Different Formulations were Prepared: • 1. […] Sirolimus was encapsulated in gelatin nanoparticles (GNP).
An incision of 5-8 cm was made alongside the femoral (or carotid) artery, and surrounding muscle and perivascular fascia were bluntly dissected to expose the artery.
The HPLC facility isolated the paclitaxel in usual manner and sirolimus was isolated with an addition step of enzymatic digesting of the GNP with trypsin at 37° C. before the analysis of each of them by Liquid Chromatography with tandem mass spectrometry (LC-MS-MS). • 1. Paclitaxel on day 1 in both the arteries with the final concentration of 12 ng/g in the first artery and 5.2 ng/g in second artery was detected by LC-MS/MS. The solution that was evacuated after 5 min of the formulation in the test site was evaluated by LC-MS/MS to detect 15% (75 mg) of the initial concentration of injected paclitaxel solution. […] Only few nanograms were detected in 24 h and that could indicate that probably 100% DMSO as a carrier took away the paclitaxel from the site to other region of the leg muscles that were not evaluated.

[3] = Rapamycin delivery in isolated porcine carotid artery (LC-MS/MS of tissue and washings); type: in vitro ADME
Procedure: Sirolimus/Rapamycin was analyzed using an LC-MS/MS system consisting of an Agilent 1290 (San Jose, CA, USA) coupled to electrospray ionization on a triple quadrupole mass spectrometer (Agilent 6460, San Jose, CA, USA) equipped with a turbo ion spray interface in negative ionization mode, and an Agilent LC 1200 Binary pump system (Agilent Technologies, Santa Clara, CA, USA). Ascomycin was used as an internal standard (IS). A Gemini 5 μm NX-C18 110 Å, LC Column polar-RP 80A column (50×2 mm, Phenomenex, Torrance, CA, USA) equipped with a Security Guard™ column (4.0 mm×3.0 mm) was utilized to optimally separate sirolimus and the internal standard from endogenous substances of porcine carotid artery. The mobile phase was a mixture of 20 mM ammonium acetate (A) and methanol (B). Sample separation was conducted using a flow rate of 0.2 mL/min and a 10-min gradient condition (0-1 min: 20% B, 1-6 min: 100% B, 6-7 min: 100% B, 7.1-10 min: 20% B). The injection volume was […] for calibration and carotid artery samples. The selected reaction monitoring transitions of m/z 912.5→371.2 and m/z 790.5→530.3 were applied for sirolimus and IS, respectively. Mass data were acquired using Analyst software version 1.5.2 (Applied Biosystems-SCIEX, Concord, ON, Canada). Data analysis was processed using SCIEX OS offline software version 1.6 (Applied Biosystems-SCIEX, Concord, ON, Canada).
Sirolimus/Rapamycin was dissolved in acetonitrile to prepare a stock solution (1 mg/mL) and including IS with 2 ng/μL and were gradually diluted by the serial dilution method using calibrated pipettes (2-20 μL, 10-100 μL and 100-1000 μL), in order to obtain working stock dilutions at decreasing concentrations ([…]). These solutions were used for the preparation of mass spectrometry optimization, calibration curve and quality control standards in DMSO and carotid artery homogenates. These stock solutions and stock dilutions were stored at −20° C., respectively.
Sirolimus/Rapamycin was dissolved in DMSO to prepare a final concentration of 100 mg/mL (stock solution) and stored at −80° C. The porcine carotid arteries were washed 5 times in PBS (1×) to remove all the blood and fluids, followed by cutting them into 40 mm length. The surface area (SA) of the artery was calculated to be 628 mm^2 (lateral SAcylinder=2πrh; π=3.14, r=2.5 mm, and h=40 mm). The Rapamycin solution was diluted in DMSO to prepare […] (2 μg/mm^2). One of the carotid arteries was tied at one end and then it was filled with 0.5 mL of Rapamycin solution ([Rapamycin]0=628 μg/mL) then the open end was tied. After a 5-minute treatment, the solution was drained out, then arteries were washed with 5×0.2 mL of PBS (1×) which was also collected for the analysis. A similar experiment was performed as a biological duplicate. The arteries and the washings were then analyzed for the presence of Sirolimus/Rapamycin for determining the amount that was absorbed by the tissues compared to the amount that was washed out for use as a model.
Treated and untreated porcine carotid artery segments (100 mg, 2 mm) were shredded in methanol with a surgical blade and transferred to a 2 ml tube with a total volume of 1 ml methanol and 100 μL of internal standard (1 ng/ml). This tube contained garnet beads/shards for homogenizing tissue. Then a Qiagen Tissue Lyser LT was used to beat the artery shreds at 50 Hz for 10 minutes. The supernatant was dried down completely under a gentle stream of nitrogen using a nitrogen evaporator. The samples were resuspended in 100 μL of DMSO and placed in inserted universal autosampler vials prior to analysis.

[4] = Stability and solubility of rapamycin in DMSO and DMSO/saline; type: physicochemical; conditions: in DMSO at −20° C.
Excerpt: The rapamycin solution in DMSO could be further diluted either in saline, PBS, or distilled water.
The best working solution is considered to be 50/50 DMSO/water i.e., 50% of the DMSO in solution. This could be envisioned valid if instead of saline blood is used.

Q: For C[S+](C)[O-] [DMSO, dimethyl sulfoxide], which “Food intake of rabbits on the atherogenic diet” value [1] is on record?
A: not suppressed

Q: And the “Inhibition of aortic lesions” value ([1]; rabbits on atherogenic diet, 2% (dose, 1.5 g/kg) DMSO)?
A: about 50%

Q: What about the Aortic lesions ([1]; rabbits on atherogenic diet, 4 (3.5 g/kg), 5 (5.5 g/kg) and 6% (9.1 g/kg) DMSO) of the same molecule?
A: virtually absent in the majority of rabbits

Q: What does the source list for CC(=O)O[C@H]1C(=O)[C@@]2(C)[C@H]([C@H](OC(=O)c3ccccc3)[C@]3(O)C[C@H](OC(=O)[C@H](O)[C@@H](NC(=O)c4ccccc4)c4ccccc4)C(C)=C1C3(C)C)[C@]1(OC(C)=O)CO[C@@H]1C[C@@H]2O [Paclitaxel]?
A: Drug in solution evacuated after 5 min, % of the initial concentration [2]: 15%; Drug in solution evacuated after 5 min, amount [2]: 75 mg; Absorbed by the tissue, % ([2]; 5 min): 85%; Absorbed by the tissue, amount ([2]; 5 min): 425 mg; Adverse reaction (edema) (day 7 animal): no edema was observed; Adverse reaction (edema) (day 14 animal): Same lack of reaction was observed; Findings around the site of delivery when sutures were opened (in vivo): a lot of dead tissues and blood clots; Adverse reaction on injected leg (edema) (t=24 h animal): severe edema

Q: What does the source list for CO[C@H]1C[C@@H]2CC[C@@H](C)[C@@](O)(O2)C(=O)C(=O)N2CCCC[C@H]2C(=O)O[C@H]([C@H](C)C[C@@H]2CC[C@@H](O)[C@H](OC)C2)CC(=O)[C@H](C)/C=C(\C)[C@@H](O)[C@@H](OC)C(=O)[C@H](C)C[C@H](C)/C=C/C=C/C=C/1C [Rapamycin]?
A: % of total drug in 2 mm of artery ([3]; 5-minute treatment, rapamycin in DMSO): 30.13%; % of total drug in washings (40 mm of artery) ([3]; PBS washings after 5-minute treatment): 0.5%; Delivery efficiency ([3]; Total Dose 220 ug): 99.55%; Lost in Blood stream (washed out) ([3]; Total Dose 220 ug): 1 µg; Remaining in tissue ([3]; Total Dose 220 ug): 68.75 µg; Remaining in tissue, % of the dose ([3]; Total Dose 220 ug): 30.13 % of the dose; Stability of rapamycin in DMSO [4]: many months
